Data set [1] has as its system T1, PLE6 (pig liver esterase 6).
T1 construct: recombinant from pET-15b in E. coli Origami (DE3) with chaperone pGro7, His-tag column; cDNA 1698 bp, 566 residues with 18-residue signal peptide, about 60 kDa
In words: LC-MS/MS product quantification, Lineweaver-Burk. The format is biochemical, Sus scrofa. Conditions: Tris-HCl 50 mM pH 7.4, 37 °C, 12.5-800 µM substrate.

Substrate in data set [2]: CC1(C)S[C@@H]2[C@H](NC(=O)[C@H](N)c3ccc(O)cc3)C(=O)N2[C@H]1C(=O)O
As to the kind of experiment: purified protein. The settings on record: Tris-HCl 50 mM pH 7.4, 37 °C, 12.5-800 µM substrate, beta-lactam amide hydrolysis to amoxicilloic acid.

Substrate in data set [3]: CC1(C)S[C@@H]2[C@H](NC(=O)[C@H](N)c3ccccc3)C(=O)N2[C@H]1C(=O)O
In words: LC-MS/MS product quantification, Lineweaver-Burk. It is filed as biochemical, Sus scrofa. The settings on record: Tris-HCl 50 mM pH 7.4, 37 °C, 12.5-800 µM substrate, beta-lactam amide hydrolysis to aminobenzyl-penicilloic acid.

`CC1(C)S[C@@H]2[C@H](NC(=O)[C@H](N)c3ccc(O)cc3)C(=O)N2[C@H]1C(=O)O` [amoxicillin]: the Km in data set [1] (beta-lactam amide hydrolysis to amoxicilloic acid) is 36.7 µM. As for `CC1(C)S[C@@H]2[C@H](NC(=O)[C@H](N)c3ccccc3)C(=O)N2[C@H]1C(=O)O` [ampicillin], the Km in data set [1] (beta-lactam amide hydrolysis to aminobenzyl-penicilloic acid) was 64.2 µM.

B1: PLE1 (pig liver esterase 1) (Sus scrofa) (protein)
chain: GQPASPPVVDTAQGRVLGKYVSLEGLAQPVAVFLGVPFAKPPLGSLRFAPPQPAEPWSFVKNTTSYPPMCCQDPVVEQMTSDLFTNGKERLTLEFSEDCLYLNIYTPADLTKRGRLPVMVWIHGGGLVLGGAPMYDGVVLAAHENVVVVAIQYRLGIWGFFSTGDEHSRGNWGHLDQVAALHWVQENIANFGGDPGSVTIFGESAGGESVSVLVLSPLAKNLFHRAISESGVALTVALVRKDMKAAAKQIAVLAGCKTTTSAVFVHCLRQKSEDELLDLTLKMKFLTLDFHGDQRESHPFLPTVVDGVLLPKMPEEILAEKDFNTVPYIVGINKQEFGWLLPTMMGFPLSEGKLDQKTATSLLWKSYPIANIPEELTPVATDKYLGGTDDPVKKKDLFLDLMGDVMFGVPSVTVARQHRDAGAPTYMYEFQYRPSFSSDKKPKTVIGDHGDEIFSVFGFPLLKGDAPEEEVSLSKMVMKFWANFARSGNPNGEGLPHWPMYDQEEGYLQIGVNTQAAKRLKGEEVAFWNDLLSKEAAKKPPKIKHAEL
notes: recombinant from pET-15b in E. coli Origami (DE3) with chaperone pGro7, His-tag column; cDNA 1698 bp, 566 residues with 18-residue signal peptide, about 60 kDa
In the case of B1, the Km came to 62.04 µM in data set [2] and 89.20 µM in data set [3].

Source of the values: article PMC6820543, “Pig liver esterases PLE1 and PLE6: heterologous expression, hydrolysis of common antibiotics and pharmacological consequences” (Scientific Reports, 2019).
